The supplement of paper PMC10307832

Experiments:
Assay in all cases: relative viability (nuclei count vs DMSO), 5 days (fraction); higher = more cells survive
[1] = compound: C(C(=O)C(=O)O)Br [Bromopyruvate] + COc1cccc2cc(-c3nc([C@H]4CC[C@H](C(=O)O)CC4)n4ncnc(N)c34)[nH]c12 [OSI-027] (partner 0.5 µM)
Summary of the method: (§1)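 Each reported value is a median over duplicate plates. It expresses relative viability: treated-well nuclei count divided by vehicle-well nuclei count. Lung cancer cell lines in 1536-well plates were dosed by pin tool a day after seeding, alone with one drug or with a fixed anchor-drug dose plus five library-drug doses (not always all listed) in √10 steps, and nuclei were counted after 5 days.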

[2] = compound: C(C(=O)C(=O)O)Br [Bromopyruvate] + C[C@]1(O)C[C@@H](c2nc(-c3ccc4ccc(-c5ccccc5)nc4c3)c3c(N)nccn32)C1 [Linsitinib] (partner 1 µM)
Summary of the method: as §1

[3] = compound: C(C(=O)C(=O)O)Br [Bromopyruvate] + N=C(N)NC(=N)NCCc1ccccc1 [Phenformin] (partner 250 µM)
Summary of the method: as §1

[4] = compound: CC(O)(CS(=O)(=O)c1ccc(F)cc1)C(=O)Nc1ccc(C#N)c(C(F)(F)F)c1 [Bicalutamide] + CCNC(=O)c1noc(-c2cc(C(C)C)c(O)cc2O)c1-c1ccc(CN2CCOCC2)cc1 [Luminespib] (partner 0.01 µM)
Summary of the method: as §1

Cell Line	relative viability ([1]; first compound 1 µM)	relative viability ([1]; first compound 3.162 µM)	relative viability ([1]; first compound 10 µM)	relative viability ([1]; first compound 31.62 µM)	relative viability ([1]; first compound 100 µM)	relative viability ([2]; first compound 1 µM)	relative viability ([2]; first compound 3.162 µM)	relative viability ([2]; first compound 10 µM)	relative viability ([2]; first compound 31.62 µM)	relative viability ([2]; first compound 100 µM)	relative viability ([3]; first compound 1 µM)	relative viability ([3]; first compound 3.162 µM)	relative viability ([3]; first compound 10 µM)	relative viability ([3]; first compound 31.62 µM)	relative viability ([3]; first compound 100 µM)	relative viability ([4]; first compound 0.08 µM)	relative viability ([4]; first compound 0.253 µM)	relative viability ([4]; first compound 0.8 µM)	relative viability ([4]; first compound 2.53 µM)
CAL-12T	0.578	0.675	0.85	0.595	0.764	0.789	0.732	0.899	0.828	0.845	0.556	0.491	0.667	0.58	0.529	0.707	0.38	0.712	0.454
NCI-H596	0.781	0.711	0.84	0.684	0.781	0.998	0.991	1.18	1.03	1.19	0.694	0.724	0.501	0.695	0.822	1.08	0.945	1.28	1.14
NCI-H1755	0.77	0.773	0.729	0.777	0.726	1.01	1.03	0.984	0.984	0.985	0.648	0.609	0.599	0.642	0.71	0.475	0.58	0.435	0.292
NCI-H2085	0.794	0.931	0.798	0.726	0.797	0.984	1.04	0.864	0.876	0.639	0.693	0.757	0.84	0.749	0.698	0.59	0.587	0.459	0.448
NCI-H2023	0.391	0.39	0.49	0.388	0.374	0.664	0.72	0.682	0.752	0.605	0.39	0.415	0.478	0.419	0.429	0.868	0.703	1	0.634
